Results from article PMC5464344, “Analgesic and anti‐inflammatory properties of novel, selective, and potent EP4 receptor antagonists” (Pharmacology Research & Perspectives, 2017).

Columns and labels:
[1] = biological target: T1, COXl (h) (Homo sapiens, UniProt P23219); experiment: Off-target activity (CEREP), COX1; type: biochemical; settings: 10 μmol/L; obtained at CEREP (Blanco et al. 2016c); Compound 1 value footnoted: non-specific assay interference
T1 construct: CEREP (contract laboratory that ran the assay)
T1 sequence (P23219 24-599): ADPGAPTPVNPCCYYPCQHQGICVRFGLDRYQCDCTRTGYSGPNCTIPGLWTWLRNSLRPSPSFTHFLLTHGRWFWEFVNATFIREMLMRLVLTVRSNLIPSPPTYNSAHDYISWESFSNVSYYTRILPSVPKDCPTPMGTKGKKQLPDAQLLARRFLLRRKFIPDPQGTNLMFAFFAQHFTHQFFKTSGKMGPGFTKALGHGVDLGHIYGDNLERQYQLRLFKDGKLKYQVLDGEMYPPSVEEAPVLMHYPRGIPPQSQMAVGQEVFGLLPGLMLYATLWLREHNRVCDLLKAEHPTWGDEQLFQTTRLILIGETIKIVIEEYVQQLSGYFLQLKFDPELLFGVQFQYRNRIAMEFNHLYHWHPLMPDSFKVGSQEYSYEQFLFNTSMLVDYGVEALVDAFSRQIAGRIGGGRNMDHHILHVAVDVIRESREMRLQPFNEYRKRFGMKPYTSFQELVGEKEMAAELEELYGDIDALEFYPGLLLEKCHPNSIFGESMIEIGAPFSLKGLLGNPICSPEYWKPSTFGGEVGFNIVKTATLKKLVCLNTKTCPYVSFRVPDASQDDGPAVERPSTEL
Source text: The off‐target activity related to prostaglandin pathway (Table 2) were obtained at CEREP (Blanco et al. 2016c).

[2] = tested on: male Lewis rats, adjuvant induced arthritis; experiment: AIA model of inflammation (paw swelling); type: in vivo; settings: rat AIA; all 3 doses tested (1, 3, and 10 mg/kg) oral once daily 4 days; P < 0.05 by Dunnett's test
Procedure: (§1) For the monoiodoacetate (MIA) and adjuvant induced arthritis (AIA) studies, male Lewis rats (Envigo, Indianapolis, IN) of approximately 8 weeks of age at the time of disease induction were used. For collagen induced arthritis studies (CIA) female Lewis rats (Charles River) weighing 150–170 g were used. Rats were housed in groups of 2 or 3 per cage and maintained in a constant temperature, and on a 12 h light/12 h dark cycle. Animals had free access to food and water at all times except during data collection.
On Day 0, paw widths of both right and left paws were measured between the lateral and dorsal surfaces using calipers, and a mean paw thickness for each rat was calculated by averaging these measurements. Rats were then inoculated intradermally with 0.25 mg of adjuvant (M. Tuberculosis H37 RA from Difco) in 100 μL of mineral oil at the base of the tail to induce adjuvant disease. Eleven days post inoculation paw widths of both right and left paws were measured again, and the percent change from the Day 0 reading was calculated. […] On the fifth day after dosing started (day 15 post adjuvant injection) the rats were euthanized without further dosing and paw width measured again. The percent increase in mean paw thickness from day 11 to day 15 was then calculated as a measure of paw swelling which is indicative of the amount of inflammation in the paws measured. […]

[3] = tested on: male Lewis rats, adjuvant induced arthritis; parameters: method as in Blanco et al. 2016b; settings: results published previously, ref Blanco et al. 2016b; cited from earlier work
[4] = tested on: female Lewis rats, collagen induced arthritis; experiment: Type-II CIA model of inflammation and autoimmunity; type: in vivo; settings: rat CIA
Procedure: as §1
On day 1 of the study ankle widths are measured across the joint (left side to right side) at the thickest point with calipers and rats immunized intradermally near the base of the tail with 0.4 mL of 1 mg/mL type II collagen (Elastin Products) emulsified with incomplete Freund's adjuvant (Sigma Aldrich). A second booster injection booster of 0.4 mL of the collagen emulsion was given on day 8 of the study. Ankle widths were measured on day 8 before the collagen injection and every 2–3 days thereafter until study end. On day 11 rats were randomized into five groups of eight animals based on inflammation (redness and/or swelling) in their hind paws and body weight. Rats were then dosed with vehicle (10% Acacia plus 0.05% antifoam) and compound 3 at doses of 3, 10, and 30 mg/kg. Prednisolone was included at a dose of 10 mg/kg as a positive control. Dosing was by oral gavage once daily for seventeen days at a dose volume of 5 mL/kg. On day 28 rats were euthanized and hind paws and knee joints collected for histology. Ankles and knees were fixed in neutral buffered formalin, decalcified, embedded in paraffin, and sectioned according to standard histological methodology and the joints were then scored by a pathologist using published scoring criteria (Bendele 2001; Levine et al. 2014).

C[C@H](NC(=O)[C@H]1CCCCN1CCOc1ccccc1)c1ccc(C(=O)O)cc1 [Compound 2]
inhibition at 10 µM [1]: -24%
increases in paw inflammation (swelling) compared to vehicle [2]: significantly inhibited

Cc1ccc(N2CCC(O)CC2)nc1C(=O)Nc1c(C)cc(C(=O)O)cc1C [Compound 1]
efficacy in rat AIA model of inflammation [3]: effective

Cc1ccc(-c2cccc(CO)c2)nc1C(=O)Nc1c(C)ccc(C(=O)O)c1C [Compound 3]
ankle histology, nearly all parameters and summed scores ([4]; 10 and 30 mg/kg oral once daily for seventeen days): significant reductions
knee joint histopathology (representative photomicrograph) ([4]; Fig. 10 bottom panel, prednisolone 10 mg/kg, compound 3 dose not given): minimal inflammation (S) and cartilage damage (large arrow), very minimal pannus (small arrow) and bone formation (P) not visible at this magnification
ankle joint histopathology (representative photomicrograph) ([4]; Fig. 10 top panel, prednisolone 10 mg/kg, compound 3 dose not given): moderate inflammation (S) and cartilage damage (large arrow), mild pannus (small arrow) and mild periosteal bone formation
ankle thickness ([4]; all three doses (3, 10, and 30 mg/kg) oral once daily, data not shown): significant reduction
